# Literature values in patent publication US11576926B2, “Composition for use in the prevention and/or treatment of epistaxis” (priority 2018, dated 2023).
# Key:
# [1] = system: TPA (12-O-tetradecanoylphorbol-13-acetate) induced inflammatory response; details: topical, 30 minutes before TPA
# [2] = system: seasonal allergic rhinitis; details: 800 mg/day in addition to the classic anti-allergy treatment; 112 patients
# Escherichia coli = details: silver ions
# Staphylococcus aureus = details: silver ions
# [3] = system: non-allergic and idiopathic rhinitis
# rhinitis sicca syndrome = details: nasal spray; 0.5% ectoin, or 0.5% ectoin and 1.0% dexpanthenol
# [4] = system: corneal wounds in rat models with type 1 diabetes; details: solution containing 0.3% HA
# [5] = system: nasal mucosa after surgery in the nasal cavity
# fibroblast = details: both in vitro and in vivo
# [6] = system: ultraviolet-induced erythema; details: in vivo
# [7] = system: epithelial tissue in mouse models; details: dexpanthenol cream; after 20 days; vs control group
# dry rhinitis = details: 20 ml spray with 5% dexpanthenol; vs placebo
# [8] = patients who received the therapy, 90 patients
molecule,measurement,setting,value
Vitamin E,activity of myeloperoxidase (MPO),[1],inhibits
same,activity of xanthine oxidase (XO),[1],inhibits
same,lipid peroxidation (LPO),[1],inhibits
same,release of hydrogen peroxide,[1],inhibits
same,nasal symptoms associated with allergic rhinitis,[2],reduction of the nasal symptoms
"[Ag] [silver, Silver]","antibacterial effect (structural changes, permeability, ion transport)",Escherichia coli,eventually leading to death
same,"antibacterial effect (structural changes, permeability, ion transport)",Staphylococcus aureus,eventually leading to death
same,"improvement in the condition of the nasal epithelium, share of patients","[3]; human, in vivo",over 70%
same,treatment effect compared to placebo,"[3]; human, in vivo",statistically significant compared to placebo
same,"improvement in the nasal decongestion, share of cases",[3]; [8],80%
same,"improvement in the rhinorrhea, share of cases",[3]; [8],93%
CC1=NCC[C@@H](C(=O)O)N1 [ectoin],"nasal obstruction, rhinorrhea and crusting",rhinitis sicca syndrome,decreased significantly
same,"recurrent nose bleeding, pharyngitis, exudate viscosity during inflammatory phenomena and cacosmia",rhinitis sicca syndrome,this did not occur
Hyaluronic acid,re-epithelialization of corneal wounds,[4],statistically significant in enhancing re-epithelialization
same,formation of bloody scabs,[5]; after the first week of treatment,prevented excessive formation of bloody scabs
same,tolerability,[5]; all trial participants,well tolerated
same,recovery (healing of the nasal mucosa),"[5]; cream with 2 mg HA per g, 6-week treatment, vs ointments based on plant extracts, 56 patients",recover faster and more effectively than the ointment group
same,adverse effects,[5]; during the trial,No adverse effects were reported
"CC(C)(CO)[C@@H](O)C(=O)NCCCO [dexpanthenol, Dexpanthenol]",fibroblast proliferation,fibroblast,activate fibroblast proliferation
same,effect on experimental ultraviolet-induced erythema,[6],anti-inflammatory effect
same,epidermal regeneration (transepidermal water loss monitoring),epidermal wounds; compared to placebo,significant acceleration of epidermal regeneration
same,erythema of epidermal wounds,epidermal wounds; dexpanthenol emulsion,reduction in erythema
same,re-epithelialization in wound healing,epidermal wounds; monitored by transepidermal water loss,Accelerated re-epithelialization
same,regeneration rate of epithelial tissue,[7],statistically higher than the control group
same,"symptoms of rhinitis (scabs, nasal respiratory capacity)",dry rhinitis,improving the symptoms of rhinitis
